Laboratory results as given in patent US20150141336A1, “Pancreatic Peptide Compounds and Use” (Novo Nordisk A/S, priority 2012, published 2015).
Numbered stars: 1 amine (or outer) side, 2 acyl side, 3 side chain; on linkers, the order of the positions; unused ones are H or OH. Side chains are listed from the residue outwards. Peptide text beside a SMILES is read from it. * marks the point of attachment. C18 diacid = O=C(O)CCCCCCCCCCCCCCCCC(=O)*; γGlu = O=C(O)[C@H](CCC(=O)[*:2])N[*:1]; AEEA = NCCOCCOCC(=O)O

Experiment: Assay (II) PK i.v. minipig, in vivo half-life
Design: species or system Göttingen mini-pigs
Conditions: male, Göttingen, minipig, iv, Half-life minipig, Assay (II)
How it was run: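 Plasma levels after a single 6 nmol/kg intravenous dose in five male Göttingen mini-pigs were measured by TFC/LC/MS/MS against spiked-plasma calibration, sampling to 240 h. Vehicle: 50 mM K2HPO4, 0.05% tween 80, pH 8.0. Individual profiles analysed non-compartmentally for half-life.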

**Q.** Which half-life does the source give for `CC[C@H](C)[C@H](NC(=O)[C@H](Cc1ccc(O)cc1)NC(=O)[C@H](CCCNC(=N)N)NC(=O)[C@H](CCCNC(=N)N)NC(=O)[C@H](CC(C)C)NC(=O)[C@H](CC(=O)O)NC(=O)[C@H](C)NC(=O)[C@H](CCCCNC(=O)COCCOCCNC(=O)COCCOCCNC(=O)CC[C@H](NC(=O)CCCCCCCCCCCCCCCCC(=O)O)C(=O)O)NC(=O)[C@H](Cc1ccc(O)cc1)NC(=O)[C@H](CCC(N)=O)NC(=O)[C@H](C)NC(=O)[C@H](CCSC)NC(=O)[C@H](CCC(N)=O)NC(=O)[C@H](CCC(=O)O)NC(=O)[C@@H]1CCCN1C(=O)[C@@H](NC(=O)[C@H](C)NC(=O)[C@H](CC(N)=O)NC(=O)[C@H](CC(=O)O)NC(=O)CNC(=O)[C@@H]1CCCN1C(=O)[C@H](Cc1ccc(O)cc1)NC(=O)[C@@H](NC(=O)[C@@H]1CCCN1C(=O)[C@H](CCC(=O)O)NC(=O)[C@@H](N)CC(C)C)C(C)C)[C@@H](C)O)C(=O)N[C@@H](CC(N)=O)C(=O)N[C@@H](CCSC)C(=O)N[C@@H](CC(C)C)C(=O)N[C@H](C(=O)N[C@@H](CCCNC(=N)N)C(=O)N1CCC[C@H]1C(=O)N[C@@H](CCCNC(=N)N)C(=O)N[C@@H](Cc1ccc(O)cc1)C(N)=O)[C@@H](C)O` [Compound AU] (H-LEPVYPGDNATPEQMAQYK([AEEA-AEEA-γGlu-C18 diacid])ADLRRYINMLTRPRY-NH2; N-terminus and C-terminus assumed) here?
**A.** 59 h

**Q.** For `CC[C@H](C)[C@H](NC(=O)[C@H](Cc1ccc(O)cc1)NC(=O)[C@H](CCCNC(=N)N)NC(=O)[C@H](CCCNC(=N)N)NC(=O)[C@H](CC(C)C)NC(=O)[C@H](CC(=O)O)NC(=O)[C@H](C)NC(=O)[C@H](C)NC(=O)[C@H](CCCCNC(=O)COCCOCCNC(=O)COCCOCCNC(=O)CC[C@H](NC(=O)CCCCCCCCCCCCCCCCC(=O)O)C(=O)O)NC(=O)[C@H](CCC(N)=O)NC(=O)[C@H](C)NC(=O)[C@H](CCSC)NC(=O)[C@H](CCC(N)=O)NC(=O)[C@H](CCC(=O)O)NC(=O)[C@@H]1CCCN1C(=O)[C@@H](NC(=O)[C@H](C)NC(=O)[C@H](CC(N)=O)NC(=O)[C@H](CC(=O)O)NC(=O)CNC(=O)[C@@H]1CCCN1C(=O)[C@H](Cc1ccc(O)cc1)NC(=O)[C@@H](NC(=O)[C@@H]1CCCN1C(=O)[C@H](CCC(=O)O)NC(=O)[C@@H](N)CC(C)C)C(C)C)[C@@H](C)O)C(=O)N[C@@H](CC(N)=O)C(=O)N[C@@H](CCSC)C(=O)N[C@@H](CC(C)C)C(=O)N[C@H](C(=O)N[C@@H](CCCNC(=N)N)C(=O)N1CCC[C@H]1C(=O)N[C@@H](CCCNC(=N)N)C(=O)N[C@@H](Cc1ccc(O)cc1)C(N)=O)[C@@H](C)O` [Compound AV] (H-LEPVYPGDNATPEQMAQK([AEEA-AEEA-γGlu-C18 diacid])AADLRRYINMLTRPRY-NH2; N-terminus and C-terminus assumed), which half-life is on record?
**A.** 28 h

**Q.** For `CC[C@H](C)[C@H](NC(=O)[C@H](Cc1ccc(O)cc1)NC(=O)[C@H](CCCNC(=N)N)NC(=O)[C@H](CCCNC(=N)N)NC(=O)[C@H](CC(C)C)NC(=O)[C@H](CC(=O)O)NC(=O)[C@H](C)NC(=O)[C@H](C)NC(=O)[C@H](Cc1ccc(O)cc1)NC(=O)[C@H](CCCCNC(=O)COCCOCCNC(=O)COCCOCCNC(=O)CC[C@H](NC(=O)CCCCCCCCCCCCCCCCC(=O)O)C(=O)O)NC(=O)[C@H](C)NC(=O)[C@H](CCSC)NC(=O)[C@H](CCC(N)=O)NC(=O)[C@H](CCC(=O)O)NC(=O)[C@@H]1CCCN1C(=O)[C@@H](NC(=O)[C@H](C)NC(=O)[C@H](CC(N)=O)NC(=O)[C@H](CC(=O)O)NC(=O)CNC(=O)[C@@H]1CCCN1C(=O)[C@H](Cc1ccc(O)cc1)NC(=O)[C@@H](NC(=O)[C@@H]1CCCN1C(=O)[C@H](CCC(=O)O)NC(=O)[C@@H](N)CC(C)C)C(C)C)[C@@H](C)O)C(=O)N[C@@H](CC(N)=O)C(=O)N[C@@H](CCSC)C(=O)N[C@@H](CC(C)C)C(=O)N[C@H](C(=O)N[C@@H](CCCNC(=N)N)C(=O)N1CCC[C@H]1C(=O)N[C@@H](CCCNC(=N)N)C(=O)N[C@@H](Cc1ccc(O)cc1)C(N)=O)[C@@H](C)O` [Compound AW] (H-LEPVYPGDNATPEQMAK([AEEA-AEEA-γGlu-C18 diacid])YAADLRRYINMLTRPRY-NH2; N-terminus and C-terminus assumed), which half-life is on record?
**A.** 33 h

**Q.** With `CC[C@H](C)[C@H](NC(=O)[C@H](Cc1ccc(O)cc1)NC(=O)[C@H](CCCNC(=N)N)NC(=O)[C@H](CCCNC(=N)N)NC(=O)[C@H](CC(C)C)NC(=O)[C@H](CC(=O)O)NC(=O)[C@H](C)NC(=O)[C@H](C)NC(=O)[C@H](Cc1ccc(O)cc1)NC(=O)[C@H](CCC(N)=O)NC(=O)[C@H](C)NC(=O)[C@H](CCCCNC(=O)COCCOCCNC(=O)COCCOCCNC(=O)CC[C@H](NC(=O)CCCCCCCCCCCCCCCCC(=O)O)C(=O)O)NC(=O)[C@H](CCC(N)=O)NC(=O)[C@H](CCC(=O)O)NC(=O)[C@@H]1CCCN1C(=O)[C@@H](NC(=O)[C@H](C)NC(=O)[C@H](CC(N)=O)NC(=O)[C@H](CC(=O)O)NC(=O)CNC(=O)[C@@H]1CCCN1C(=O)[C@H](Cc1ccc(O)cc1)NC(=O)[C@@H](NC(=O)[C@@H]1CCCN1C(=O)[C@H](CCC(=O)O)NC(=O)[C@@H](N)CC(C)C)C(C)C)[C@@H](C)O)C(=O)N[C@@H](CC(N)=O)C(=O)N[C@@H](CCSC)C(=O)N[C@@H](CC(C)C)C(=O)N[C@H](C(=O)N[C@@H](CCCNC(=N)N)C(=O)N1CCC[C@H]1C(=O)N[C@@H](CCCNC(=N)N)C(=O)N[C@@H](Cc1ccc(O)cc1)C(N)=O)[C@@H](C)O` [Compound AY] (H-LEPVYPGDNATPEQK([AEEA-AEEA-γGlu-C18 diacid])AQYAADLRRYINMLTRPRY-NH2; N-terminus and C-terminus assumed) as the molecule, how does the half-life read?
**A.** 25 h

**Q.** Which half-life does the source give for `CC[C@H](C)[C@H](NC(=O)[C@H](Cc1ccc(O)cc1)NC(=O)[C@H](CCCNC(=N)N)NC(=O)[C@H](CCCNC(=N)N)NC(=O)[C@H](CC(C)C)NC(=O)[C@H](CC(=O)O)NC(=O)[C@H](C)NC(=O)[C@H](C)NC(=O)[C@H](Cc1ccc(O)cc1)NC(=O)[C@H](CCC(N)=O)NC(=O)[C@H](C)NC(=O)[C@H](CCSC)NC(=O)[C@H](CCCCNC(=O)COCCOCCNC(=O)COCCOCCNC(=O)CC[C@H](NC(=O)CCCCCCCCCCCCCCCCC(=O)O)C(=O)O)NC(=O)[C@H](CCC(=O)O)NC(=O)[C@@H]1CCCN1C(=O)[C@@H](NC(=O)[C@H](C)NC(=O)[C@H](CC(N)=O)NC(=O)[C@H](CC(=O)O)NC(=O)CNC(=O)[C@@H]1CCCN1C(=O)[C@H](Cc1ccc(O)cc1)NC(=O)[C@@H](NC(=O)[C@@H]1CCCN1C(=O)[C@H](CCC(=O)O)NC(=O)[C@@H](N)CC(C)C)C(C)C)[C@@H](C)O)C(=O)N[C@@H](CC(N)=O)C(=O)N[C@@H](CCSC)C(=O)N[C@@H](CC(C)C)C(=O)N[C@H](C(=O)N[C@@H](CCCNC(=N)N)C(=O)N1CCC[C@H]1C(=O)N[C@@H](CCCNC(=N)N)C(=O)N[C@@H](Cc1ccc(O)cc1)C(N)=O)[C@@H](C)O` [Compound AZ] (H-LEPVYPGDNATPEK([AEEA-AEEA-γGlu-C18 diacid])MAQYAADLRRYINMLTRPRY-NH2; N-terminus and C-terminus assumed) here?
**A.** 20 h

**Q.** For `CC[C@H](C)[C@H](NC(=O)[C@H](Cc1ccc(O)cc1)NC(=O)[C@H](CCCNC(=N)N)NC(=O)[C@H](CCCNC(=N)N)NC(=O)[C@H](CC(C)C)NC(=O)[C@H](CC(=O)O)NC(=O)[C@H](C)NC(=O)[C@H](C)NC(=O)[C@H](Cc1ccc(O)cc1)NC(=O)[C@H](CCC(N)=O)NC(=O)[C@H](C)NC(=O)[C@H](CCSC)NC(=O)[C@H](CCC(N)=O)NC(=O)[C@H](CCC(=O)O)NC(=O)[C@@H]1CCCN1C(=O)[C@@H](NC(=O)[C@H](C)NC(=O)[C@H](CC(N)=O)NC(=O)[C@H](CC(=O)O)NC(=O)CNC(=O)[C@@H]1CCCN1C(=O)[C@H](Cc1ccc(O)cc1)NC(=O)[C@@H](NC(=O)[C@@H]1CCCN1C(=O)[C@H](CCC(=O)O)NC(=O)[C@H](CC(C)C)NC(=O)[C@@H]1CCCN1)C(C)C)[C@@H](C)O)C(=O)N[C@@H](CC(N)=O)C(=O)N[C@@H](CCSC)C(=O)N[C@@H](CC(C)C)C(=O)N[C@H](C(=O)N[C@@H](CCCNC(=N)N)C(=O)N[C@@H](CCCCNC(=O)COCCOCCNC(=O)COCCOCCNC(=O)CC[C@H](NC(=O)CCCCCCCCCCCCCCCCC(=O)O)C(=O)O)C(=O)N[C@@H](CCCNC(=N)N)C(=O)N[C@@H](Cc1ccc(O)cc1)C(N)=O)[C@@H](C)O` [Compound A] (H-PLEPVYPGDNATPEQMAQYAADLRRYINMLTRK([AEEA-AEEA-γGlu-C18 diacid])RY-NH2; N-terminus and C-terminus assumed), which half-life is on record?
**A.** 99 h

**Q.** With `CC[C@H](C)[C@H](NC(=O)[C@H](Cc1ccc(O)cc1)NC(=O)[C@H](CCCNC(=N)N)NC(=O)[C@H](CCCNC(=N)N)NC(=O)[C@H](CC(C)C)NC(=O)[C@H](CC(=O)O)NC(=O)[C@H](C)NC(=O)[C@H](C)NC(=O)[C@H](Cc1ccc(O)cc1)NC(=O)[C@H](CCC(N)=O)NC(=O)[C@H](C)NC(=O)[C@H](CCSC)NC(=O)[C@H](CCC(N)=O)NC(=O)[C@H](CCCCNC(=O)COCCOCCNC(=O)COCCOCCNC(=O)CC[C@H](NC(=O)CCCCCCCCCCCCCCCCC(=O)O)C(=O)O)NC(=O)[C@@H]1CCCN1C(=O)[C@@H](NC(=O)[C@H](C)NC(=O)[C@H](CC(N)=O)NC(=O)[C@H](CC(=O)O)NC(=O)CNC(=O)[C@@H]1CCCN1C(=O)[C@H](Cc1ccc(O)cc1)NC(=O)[C@@H](NC(=O)[C@@H]1CCCN1C(=O)[C@H](CCC(=O)O)NC(=O)[C@@H](N)CC(C)C)C(C)C)[C@@H](C)O)C(=O)N[C@@H](CC(N)=O)C(=O)N[C@@H](CCSC)C(=O)N[C@@H](CC(C)C)C(=O)N[C@H](C(=O)N[C@@H](CCCNC(=N)N)C(=O)N1CCC[C@H]1C(=O)N[C@@H](CCCNC(=N)N)C(=O)N[C@@H](Cc1ccc(O)cc1)C(N)=O)[C@@H](C)O` [Compound BA] (H-LEPVYPGDNATPK([AEEA-AEEA-γGlu-C18 diacid])QMAQYAADLRRYINMLTRPRY-NH2; N-terminus and C-terminus assumed) as the molecule, how does the half-life read?
**A.** 24 h
